Experiment [1] deals with E. casseliflavus (ATCC 700 327). Nature of the experiment: Spontaneous resistance rate. The format is cell-based. Particulars: E. casseliflavus ATCC 700 327, agar with 16 µg mL^−1 CTZ‐R6. How it is done:
The rate of spontaneous resistance of E. casseliflavus (ATCC 700 327) against CTZ‐R6 was investigated as previously described.^[ [33] ^] A bacterial suspension of ATCC 700 327 was adjusted to an OD600 of 1 with 0.9% NaCl, corresponding to a theoretical concentration of 2 × 10^8 CFU mL^−1. 250 µL of the suspension were plated on 10 cation‐adjusted MHB II agar plates containing 16 µg mL^−1 CTZ‐R6 and incubated at 37 °C for 18 h. As concentration control, the bacterial inoculum (OD600 = 1) was diluted and plated on antibiotic‐free cation adjusted MHB II agar plates and incubated at 37 °C for 18 h. The number of colonies on both types of plates was counted and the spontaneous resistance rate was calculated accordingly: (2) SpontaneousResistanceRate=#coloniesonantibioticplates/#coloniesoncontrolplatexdilutionfactorx2.5

The test system of experiment [2] is CTZ‐resistant A. baumannii (n = 4). The format is cell-based. As for the experimental part: The minimum inhibitory concentration (MIC) of the β‐lactam–peptide conjugates was determined by broth microdilution as previously described.^[ [17] ^] Briefly, in cation‐adjusted MHB II medium, a twofold serial dilution of the compounds was prepared in 96‐well round‐bottom polystyrene or polypropylene microtiter plates with each well containing 50 µL. The plates were inoculated with 50 µL bacterial suspension and the final inoculum, in a total volume of 100 µL, contained 5 × 10^5 CFU mL^−1. The microplates were incubated for 20 h at 37 ± 1 °C. The lowest concentration preventing visible bacterial growth was considered the MIC value. For susceptibility testing of combinations of β‐lactamase‐inhibitors with either a β‐lactam antibiotic or a β‐lactam–peptide conjugate, fixed concentrations of the inhibitors according to the EUCAST (European Committee on Antimicrobial Susceptibility Testing) guidelines (clavulanic acid = 2 mg L^−1, avibactam = 4 mg L^−1) were used.

Molecules are shown by their SMILES. Where only a bound is given, the exact number is not on record here.

`CC(C)(O/N=C(\C(=O)N[C@@H]1C(=O)N2C(C(=O)[O-])=C(C[n+]3ccccc3)CS[C@H]12)c1csc(N)n1)C(=O)NCCCCCCN1C(=O)CC(SC[C@H](NC(=O)[C@H](CCCNC(=N)N)NC(=O)[C@H](CCCNC(=N)N)NC(=O)[C@H](CCCNC(=N)N)NC(=O)[C@H](CCCNC(=N)N)NC(=O)[C@H](CCCNC(=N)N)NC(=O)[C@@H](N)CCCNC(=N)N)C(N)=O)C1=O` (stereo partly drawn) [CTZ-R6]: in experiment [1], the spontaneous resistance rate was < 2.7 × 10^−9. For the same compound, the MIC range in experiment [2] (CTZ‐resistant (n = 4, 20 h)) is 4 to 16 µg/mL. Besides, the “increase in antimicrobial activity versus CTZ” value in experiment [2] (CTZ‐resistant A. baumannii) is approximately 16 fold.

The values above are taken from PMC11672299, “Conjugation of Polycationic Peptides Extends the Efficacy Spectrum of β‐Lactam Antibiotics” (Advanced Science, 2024).
